14 molecules from ChEMBL document CHEMBL4699582, “Discovery of OATD-01, a First-in-Class Chitinase Inhibitor as Potential New Therapeutics for Idiopathic Pulmonary Fibrosis” (J Med Chem, 2020) can be followed below.

The term IC50 denotes the concentration needed to halve the response being measured.

The target in data set [1] is Voltage-gated inwardly rectifying potassium channel KCNH2 (Homo sapiens, UniProt Q12809). Nature of the data set: Inhibition of tracer red binding to human ERG expressed in HEK293 cell membranes measured after 2 to 6 hrs by fluorescence polarization assay.
The target in data set [2] is Acidic mammalian chitinase (Homo sapiens, UniProt Q9BZP6). Nature of the data set: Inhibition of full-length C-terminal his-tagged human AMCase expressed in CHO-K1 cells assessed as reduction in chitinolytic activity using 4-methylumbelliferyl-beta-D-N,N-diacetylchitobioside hydrate as substrate after 60 mins by fluorometric assay. Format: cell-based.
Data set [3] concerns the target Acidic mammalian chitinase (Mus musculus, UniProt Q91XA9). Nature of the data set: Inhibition of full-length C-terminal his-tagged mouse AMCase expressed in expressed in CHO-K1 cells assessed as reduction in chitinolytic activity using 4-methylumbelliferyl-beta-D-N,N'-diacetylchitobioside hydrate as substrate after 60 mins by fluorometric assay. It is filed as cell-based.

In data set [4] the target is Chitotriosidase-1 (Mus musculus, UniProt Q9D7Q1). Nature of the data set: biochemical.
Description: Inhibition of recombinant full-length C-terminal his-tagged mouse CHIT1 expressed in CHO-K1 cells assessed as reduction in chitinolytic activity using 4-methylumbelliferyl-beta-D-N,N',N"-triacetylchitotrioside as substrate after 60 mins by fluorometric assay
Data set [5] addresses Chitotriosidase-1 (Homo sapiens, UniProt Q13231). It is filed as cell-based. The following applies: hek293f.

Chitotriosidase-1 (Mus musculus, UniProt Q9D7Q1), sequence (Q9D7Q1 whole entry): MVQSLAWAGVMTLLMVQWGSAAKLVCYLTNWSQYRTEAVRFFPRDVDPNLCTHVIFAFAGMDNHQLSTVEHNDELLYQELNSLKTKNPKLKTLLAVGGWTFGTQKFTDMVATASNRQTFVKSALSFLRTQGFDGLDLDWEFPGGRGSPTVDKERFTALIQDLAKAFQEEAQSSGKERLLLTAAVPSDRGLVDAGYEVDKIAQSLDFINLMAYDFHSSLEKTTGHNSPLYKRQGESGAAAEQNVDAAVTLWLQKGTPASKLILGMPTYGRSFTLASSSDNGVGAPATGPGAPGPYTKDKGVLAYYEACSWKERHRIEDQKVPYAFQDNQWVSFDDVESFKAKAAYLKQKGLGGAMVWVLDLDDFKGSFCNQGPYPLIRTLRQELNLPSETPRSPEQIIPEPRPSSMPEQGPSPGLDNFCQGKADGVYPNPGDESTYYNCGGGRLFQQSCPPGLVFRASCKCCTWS
Acidic mammalian chitinase (Mus musculus, UniProt Q91XA9), sequence (Q91XA9 whole entry): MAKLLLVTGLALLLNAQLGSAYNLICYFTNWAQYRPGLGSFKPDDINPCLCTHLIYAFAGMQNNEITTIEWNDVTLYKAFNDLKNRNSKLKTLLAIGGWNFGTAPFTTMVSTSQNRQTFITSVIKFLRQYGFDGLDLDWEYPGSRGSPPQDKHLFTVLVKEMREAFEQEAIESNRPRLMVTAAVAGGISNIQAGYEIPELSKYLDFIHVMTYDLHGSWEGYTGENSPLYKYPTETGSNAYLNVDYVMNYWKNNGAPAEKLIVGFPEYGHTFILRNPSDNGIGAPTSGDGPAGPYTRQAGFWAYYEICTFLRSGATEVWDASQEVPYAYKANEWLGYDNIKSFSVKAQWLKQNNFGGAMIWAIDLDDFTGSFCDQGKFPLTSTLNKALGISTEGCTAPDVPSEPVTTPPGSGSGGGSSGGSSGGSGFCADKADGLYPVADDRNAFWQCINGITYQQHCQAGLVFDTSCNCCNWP
Voltage-gated inwardly rectifying potassium channel KCNH2, sequence (Q12809 whole entry): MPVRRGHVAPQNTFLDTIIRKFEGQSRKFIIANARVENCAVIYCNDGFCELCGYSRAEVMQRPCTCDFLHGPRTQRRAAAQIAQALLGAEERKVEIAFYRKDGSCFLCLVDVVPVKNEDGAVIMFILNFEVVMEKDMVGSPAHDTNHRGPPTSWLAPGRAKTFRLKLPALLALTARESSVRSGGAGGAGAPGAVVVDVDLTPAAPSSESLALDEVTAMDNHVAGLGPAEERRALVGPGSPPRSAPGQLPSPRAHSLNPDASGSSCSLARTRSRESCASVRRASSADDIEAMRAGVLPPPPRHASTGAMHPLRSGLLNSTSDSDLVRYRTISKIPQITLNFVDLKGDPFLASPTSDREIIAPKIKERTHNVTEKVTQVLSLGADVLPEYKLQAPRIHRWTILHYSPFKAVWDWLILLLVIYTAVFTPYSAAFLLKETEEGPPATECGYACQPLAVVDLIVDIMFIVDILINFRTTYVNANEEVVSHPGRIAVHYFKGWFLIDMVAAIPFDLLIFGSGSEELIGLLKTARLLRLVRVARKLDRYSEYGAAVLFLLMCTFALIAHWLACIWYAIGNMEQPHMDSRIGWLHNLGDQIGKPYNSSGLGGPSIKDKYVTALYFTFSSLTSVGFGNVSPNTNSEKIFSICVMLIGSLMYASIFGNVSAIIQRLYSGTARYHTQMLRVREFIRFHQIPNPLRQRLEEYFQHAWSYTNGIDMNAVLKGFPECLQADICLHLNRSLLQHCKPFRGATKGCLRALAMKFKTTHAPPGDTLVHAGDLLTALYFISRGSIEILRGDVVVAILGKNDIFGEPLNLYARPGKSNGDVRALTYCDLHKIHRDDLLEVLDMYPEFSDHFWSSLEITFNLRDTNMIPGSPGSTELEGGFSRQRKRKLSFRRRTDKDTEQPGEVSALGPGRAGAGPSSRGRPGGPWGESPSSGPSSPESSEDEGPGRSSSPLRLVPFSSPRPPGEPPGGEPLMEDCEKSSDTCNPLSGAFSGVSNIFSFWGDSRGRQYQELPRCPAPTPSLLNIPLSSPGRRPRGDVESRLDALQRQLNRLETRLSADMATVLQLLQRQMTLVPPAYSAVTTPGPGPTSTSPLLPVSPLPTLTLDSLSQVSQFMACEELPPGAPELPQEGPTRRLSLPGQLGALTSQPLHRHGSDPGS
Chitotriosidase-1 (Homo sapiens, UniProt Q13231), sequence (Q13231 whole entry): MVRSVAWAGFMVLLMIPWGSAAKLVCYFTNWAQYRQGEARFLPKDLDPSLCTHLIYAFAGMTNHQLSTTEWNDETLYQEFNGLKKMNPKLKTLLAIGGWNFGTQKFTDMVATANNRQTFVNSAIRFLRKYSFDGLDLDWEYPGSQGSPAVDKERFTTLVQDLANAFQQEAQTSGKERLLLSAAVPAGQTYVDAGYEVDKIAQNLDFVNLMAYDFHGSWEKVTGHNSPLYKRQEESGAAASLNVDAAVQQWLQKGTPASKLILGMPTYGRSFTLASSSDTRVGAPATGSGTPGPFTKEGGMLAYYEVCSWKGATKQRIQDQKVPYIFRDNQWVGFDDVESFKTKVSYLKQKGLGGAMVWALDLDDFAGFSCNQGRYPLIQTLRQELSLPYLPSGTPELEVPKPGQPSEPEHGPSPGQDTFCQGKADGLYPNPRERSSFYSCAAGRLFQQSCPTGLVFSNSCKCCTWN
Acidic mammalian chitinase (Homo sapiens, UniProt Q9BZP6), sequence (Q9BZP6 whole entry): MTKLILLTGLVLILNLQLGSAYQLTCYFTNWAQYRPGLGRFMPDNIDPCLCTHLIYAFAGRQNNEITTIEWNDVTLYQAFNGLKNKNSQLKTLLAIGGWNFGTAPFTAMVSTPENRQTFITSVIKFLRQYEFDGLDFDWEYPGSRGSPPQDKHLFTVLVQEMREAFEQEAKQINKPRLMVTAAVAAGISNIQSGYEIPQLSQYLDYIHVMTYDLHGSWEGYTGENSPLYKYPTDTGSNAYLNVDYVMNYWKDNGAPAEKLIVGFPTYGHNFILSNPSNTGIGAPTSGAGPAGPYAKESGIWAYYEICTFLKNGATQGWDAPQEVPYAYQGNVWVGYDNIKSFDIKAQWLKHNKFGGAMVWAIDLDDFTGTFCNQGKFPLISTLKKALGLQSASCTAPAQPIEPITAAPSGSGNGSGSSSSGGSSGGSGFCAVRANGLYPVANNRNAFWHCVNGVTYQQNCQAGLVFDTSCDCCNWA

As for `CC(C)CN1C[C@H](Cc2ccc(Cl)cc2)N(C2CCN(c3n[nH]c(N)n3)CC2)C[C@@H]1C`, the 50% inhibitory concentration (IC50) was 2400 nM in data set [1] and 84 nM in data set [2].
`CN1CCN(C2CCN(c3nnc(N)[nH]3)CC2)[C@@H](Cc2ccc(Cl)cc2)C1`: in data set [1] (hek293), the IC50 entry is given as “Not Active”.
On to `Nc1nnc(N2CCC(N3Cc4ccccc4OC[C@@H]3Cc3ccc(Cl)cc3)CC2)[nH]1`, for which the half-maximal inhibitory concentration (IC50) in data set [3] stood at 59 nM; in data set [4], 137 nM; in data set [1], 22000 nM.
As for `C[C@@H]1CN(C2CCN(c3nnc(N)[nH]3)CC2)[C@@H](Cc2ccc(Cl)cc2)CO1`, the 50% inhibitory concentration (IC50) in data set [3] amounted to 1000 nM; in data set [4], 7200 nM.
In the case of `CNC(=O)[C@H]1CN(C2CCN(c3nc(N)n[nH]3)CC2)[C@@H](Cc2ccc(Cl)cc2)CO1`, the IC50 was 7.8 nM in data set [3], 49 nM in data set [4] and “Not Active” in data set [1] (hek293).
`COC[C@H]1CN(C2CCN(c3nc(N)n[nH]3)CC2)[C@@H](Cc2ccc(Cl)cc2)CO1`: the IC50 in data set [3] amounted to 7.7 nM; in data set [4] it was 30 nM; in data set [1], 100000 nM.
The matching figures for `CC(C)C[C@H]1CN(C2CCN(c3nnc(N)[nH]3)CC2)[C@@H](Cc2ccc(Cl)cc2)CO1`: 1 nM, 15 nM and 8500 nM.
The matching figures for `Nc1n[nH]c(N2CCC(N3CC(=O)NC[C@@H]3Cc3ccc(Cl)cc3)CC2)n1`: 660 nM, 5300 nM and 80000 nM.
Take `Nc1n[nH]c(N2CCC(N3CCNC(=O)[C@@H]3Cc3ccc(Cl)cc3)CC2)n1`: the IC50 in data set [3] was 22000 nM; in data set [4], 27000 nM; in data set [5] it was “Not Active”.
Consider `CC(C)(O)[C@H]1CN(C2CCN(c3nc(N)n[nH]3)CC2)[C@@H](Cc2ccc(Cl)cc2)CO1`, for which the half-maximal inhibitory concentration (IC50) in data set [3] was 5.5 nM; in data set [4], 29 nM; in data set [1] (hek293) it was “Not Active”.
`CC[C@H]1CN(C2CCN(c3nc(N)n[nH]3)CC2)[C@@H](Cc2ccc(Cl)cc2)CO1`: the results for the half-maximal inhibitory concentration (IC50) in data set [3] and in data set [1] were 1.3 nM and 33000 nM, respectively.
`Nc1nnc(N2CCC(N3C[C@H](CO)OC[C@@H]3Cc3ccc(Cl)cc3)CC2)[nH]1`: the IC50 in data set [3] amounted to 6.7 nM; in data set [4], 25 nM; in data set [1] it was 72000 nM.
`Nc1nnc(N2CCC(N3CCS(=O)(=O)C[C@@H]3Cc3ccc(Cl)cc3)CC2)[nH]1`: the IC50 in data set [3] worked out at 3000 nM; in data set [4], 1700 nM.
In the case of `CC(C)[C@H]1CN(C2CCN(c3nc(N)n[nH]3)CC2)[C@@H](Cc2ccc(Cl)cc2)CO1`, the values for the IC50 in data set [3], in data set [4] and in data set [1] were 2.1 nM, 19 nM and 34000 nM, respectively.
